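1) Cells in 96-well plates. 2) Compound, 48 h, 5 concentrations. 3) Linear interpolation between surrounding doses. 4) Unreached endpoint = highest concentration. At the GI50, growth is halved. TGI: concentration producing complete growth inhibition.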
Key:
Assay in all cases: inhibition of tumour cell growth, NCI panel, 48 h
MDA-MB-468 breast = test system: MDA-MB-468 breast
RPMI-8226 leukemia = test system: RPMI-8226 leukemia
HCT-15 colon = test system: HCT-15 colon
SNB-75 CNS = test system: SNB-75 CNS
MALME-3M melanoma = test system: MALME-3M melanoma
SF-295 CNS = test system: SF-295 CNS
BT-549 breast = test system: BT-549 breast
SF-539 CNS = test system: SF-539 CNS
K-562 leukemia = test system: K-562 leukemia
KM12 colon = test system: KM12 colon
UO-31 renal = test system: UO-31 renal
HL-60(TB) leukemia = test system: HL-60(TB) leukemia
OVCAR-5 ovarian = test system: OVCAR-5 ovarian
UACC-62 melanoma = test system: UACC-62 melanoma
HCT-116 colon = test system: HCT-116 colon
SNB-19 CNS = test system: SNB-19 CNS
SR leukemia = test system: SR leukemia
LOX IMVI melanoma = test system: LOX IMVI melanoma
786-0 renal = test system: 786-0 renal
OVCAR-8 ovarian = test system: OVCAR-8 ovarian
M14 melanoma = test system: M14 melanoma
MDA-MB-231 breast = test system: MDA-MB-231 breast
SK-OV-3 ovarian = test system: SK-OV-3 ovarian
MDA-MB-435 = test system: MDA-MB-435
HOP-62 NSCLC = test system: HOP-62 NSCLC
TK-10 renal = test system: TK-10 renal
IGROV1 ovarian = test system: IGROV1 ovarian
SK-MEL-5 melanoma = test system: SK-MEL-5 melanoma
UACC-257 melanoma = test system: UACC-257 melanoma

For `COc1ccc(C(=O)Nc2sc3c(c2C#N)CCC(=O)C3)cc1C(F)(F)F`, the GI50 (MDA-MB-468 breast) was 0.495 µM, the TGI (MDA-MB-468 breast) was 1.48 µM and the GI50 (RPMI-8226 leukemia) was 0.145 µM. The GI50 (HCT-15 colon) was 0.385 µM, the TGI (HCT-15 colon) was 1.49 µM and the GI50 (SNB-75 CNS) was 1.22 µM. For the same molecule, the TGI (SNB-75 CNS) was 3.68 µM, the GI50 (MALME-3M melanoma) was 0.37 µM and the TGI (MALME-3M melanoma) was 1.42 µM. For the same molecule, the GI50 (SF-295 CNS) was 1.79 µM, the TGI (SF-295 CNS) was 4.78 µM and the GI50 (BT-549 breast) was 0.564 µM. It also gave a TGI (BT-549 breast) of 1.92 µM, a GI50 (SF-539 CNS) of 0.343 µM and a TGI (SF-539 CNS) of 1.28 µM. For the same molecule, the GI50 (K-562 leukemia) was 0.294 µM, the TGI (K-562 leukemia) was over 100 µM and the GI50 (KM12 colon) was 0.584 µM. It also gave a TGI (KM12 colon) of 2.21 µM, a GI50 (UO-31 renal) of 0.422 µM and a TGI (UO-31 renal) of 1.62 µM. It also gave a GI50 (HL-60(TB) leukemia) of 0.339 µM, a TGI (HL-60(TB) leukemia) of 5.78 µM and a GI50 (OVCAR-5 ovarian) of 1.96 µM. For the same molecule, the TGI (OVCAR-5 ovarian) was 4.84 µM, the GI50 (UACC-62 melanoma) was 0.826 µM and the TGI (UACC-62 melanoma) was 2.21 µM. The GI50 (HCT-116 colon) was 0.299 µM, the TGI (HCT-116 colon) was 1.58 µM and the GI50 (SNB-19 CNS) was 2.5 µM. For the same molecule, the TGI (SNB-19 CNS) was 10.5 µM, the GI50 (SR leukemia) was 0.339 µM and the TGI (SR leukemia) was over 100 µM. The GI50 (LOX IMVI melanoma) was 0.416 µM, the TGI (LOX IMVI melanoma) was 1.65 µM and the GI50 (786-0 renal) was 1.82 µM. The TGI (786-0 renal) was 7.27 µM, the GI50 (OVCAR-8 ovarian) was 1.28 µM and the TGI (OVCAR-8 ovarian) was 3.71 µM. For the same molecule, the GI50 (M14 melanoma) was 0.499 µM, the TGI (M14 melanoma) was 1.92 µM and the GI50 (MDA-MB-231 breast) was 1.14 µM. The TGI (MDA-MB-231 breast) was 2.6 µM, the GI50 (SK-OV-3 ovarian) was 2.48 µM and the TGI (SK-OV-3 ovarian) was 6.71 µM. The GI50 (MDA-MB-435) was 0.594 µM, the TGI (MDA-MB-435) was 2.06 µM and the GI50 (HOP-62 NSCLC) was 2.65 µM. It also gave a TGI (HOP-62 NSCLC) of 8.88 µM, a GI50 (TK-10 renal) of 1.21 µM and a TGI (TK-10 renal) of 7.6 µM. It also gave a GI50 (IGROV1 ovarian) of 1.29 µM, a TGI (IGROV1 ovarian) of 2.97 µM and a GI50 (SK-MEL-5 melanoma) of 1.35 µM. For the same molecule, the TGI (SK-MEL-5 melanoma) was 2.66 µM, the GI50 (UACC-257 melanoma) was 1.6 µM and the TGI (UACC-257 melanoma) was 3.92 µM.
